Assay results taken from article PMC4748418 (Journal of chromatography. A, 2015).

What was measured:
α3β4 nAChR = α3β4 nAChR (Homo sapiens, UniProt P30926+P32297); assay: biochemical
α3β4α5 nAChR [1] = target: T1, α3β4α5 nAChR (Homo sapiens, UniProt P30532+P30926+P32297); details: agonist binding site
α3β4α5 nAChR [2] = target: T1, α3β4α5 nAChR; assay: biochemical

α3β4 nAChR, sequence (P32297 32-505): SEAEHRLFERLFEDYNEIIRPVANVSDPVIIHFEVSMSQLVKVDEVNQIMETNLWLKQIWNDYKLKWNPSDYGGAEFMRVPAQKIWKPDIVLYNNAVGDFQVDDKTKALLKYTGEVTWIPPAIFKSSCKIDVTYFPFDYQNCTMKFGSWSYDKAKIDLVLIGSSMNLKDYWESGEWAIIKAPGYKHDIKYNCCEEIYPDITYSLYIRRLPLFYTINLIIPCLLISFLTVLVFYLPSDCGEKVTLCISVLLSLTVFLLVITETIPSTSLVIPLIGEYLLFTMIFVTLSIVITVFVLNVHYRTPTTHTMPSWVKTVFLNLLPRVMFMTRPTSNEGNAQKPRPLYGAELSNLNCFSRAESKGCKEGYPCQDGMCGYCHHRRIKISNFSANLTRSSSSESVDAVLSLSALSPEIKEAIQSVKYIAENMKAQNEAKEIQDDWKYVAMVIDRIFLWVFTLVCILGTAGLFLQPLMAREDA
α3β4 nAChR, sequence (P30926 22-498): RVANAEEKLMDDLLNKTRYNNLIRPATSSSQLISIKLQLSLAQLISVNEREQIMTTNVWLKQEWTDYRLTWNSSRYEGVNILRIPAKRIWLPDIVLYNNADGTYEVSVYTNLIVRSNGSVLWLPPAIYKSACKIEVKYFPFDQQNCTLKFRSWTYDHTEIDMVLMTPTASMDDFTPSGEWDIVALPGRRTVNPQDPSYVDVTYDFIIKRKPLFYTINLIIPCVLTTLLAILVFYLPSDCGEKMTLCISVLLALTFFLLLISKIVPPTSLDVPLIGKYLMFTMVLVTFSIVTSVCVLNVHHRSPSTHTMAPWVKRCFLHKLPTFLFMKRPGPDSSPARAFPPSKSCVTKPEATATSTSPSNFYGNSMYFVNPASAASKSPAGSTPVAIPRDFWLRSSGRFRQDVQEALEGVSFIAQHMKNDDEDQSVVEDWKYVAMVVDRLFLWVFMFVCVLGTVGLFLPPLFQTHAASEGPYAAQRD
T1 sequence (P32297 32-505): as the sequence (P32297 32-505) above
T1 sequence (P30926 22-498): as the sequence (P30926 22-498) above
T1 sequence (P30532 23-468): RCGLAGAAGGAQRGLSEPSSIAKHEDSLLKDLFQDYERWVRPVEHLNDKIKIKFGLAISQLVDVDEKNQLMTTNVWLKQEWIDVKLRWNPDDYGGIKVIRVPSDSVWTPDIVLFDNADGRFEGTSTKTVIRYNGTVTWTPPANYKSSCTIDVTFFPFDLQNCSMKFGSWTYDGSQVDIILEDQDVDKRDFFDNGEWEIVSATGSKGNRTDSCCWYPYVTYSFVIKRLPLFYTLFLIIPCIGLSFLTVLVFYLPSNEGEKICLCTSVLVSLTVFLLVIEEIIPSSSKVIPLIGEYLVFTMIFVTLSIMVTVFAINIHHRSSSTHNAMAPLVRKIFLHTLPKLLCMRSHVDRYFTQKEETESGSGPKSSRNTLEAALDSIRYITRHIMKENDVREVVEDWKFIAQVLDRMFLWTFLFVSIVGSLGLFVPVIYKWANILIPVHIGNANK

| Structure (SMILES) | Ki (α3β4 nAChR) [nM] | higher affinity for the α3β4α5 nAChR vs the α3β4 nAChR (α3β4α5 nAChR [1]) [fold] | subtype selectivity between α3β4 and α3β4α5 nicotinic receptors (α3β4α5 nAChR [1]) | Ki (α3β4α5 nAChR [2]) [nM] | Kd (α3β4 nAChR) [nM] | Kd (α3β4α5 nAChR [2]) [nM] |
| --- | --- | --- | --- | --- | --- | --- |
| c1cncc([C@@H]2CCCCN2)c1 [Anabasine] | 528 ± 136 | 10 | selective for the α3β4α5 nicotinic receptor | 67.5 ± 25.8 | – | – |
| O=c1cccc2n1C[C@@H]1CNC[C@H]2C1 [Cytisine] | 8.52 ± 5.7 | – | – | 5.4 ± 3.5 | 8.5 | 5.4 |
| c1cncc([C@@H]2CCCN2)c1 [Nornicotine] | 35.6 ± 18.9 | – | no subtype selectivity | 20.8 ± 11.7 | 36 | 21 |
